The record followed here is ChEMBL document CHEMBL4346712, “Research progress in the biological activities of 3,4,5-trimethoxycinnamic acid (TMCA) derivatives” (Eur J Med Chem, 2019).

Each structure is given as a SMILES string. In brackets after ≈: the same amount, converted by molar mass.

Data set [1] has as its target 5-hydroxytryptamine receptor 6 (Homo sapiens, UniProt P50406). The data set can be described thus: Displacement of [3H]LSD from human 5-HT6 receptor expressed in CHO-K1 cell membranes after 60 mins. On the technique in general: Loss of bound radioactivity is the signal in a displacement assay; it reports binding, not function.
Data set [2] concerns the target 5-hydroxytryptamine receptor 7 (Homo sapiens, UniProt P34969). As to the kind of experiment: Displacement of [3H]LSD from human 5-HT7 receptor expressed in CHO-K1 cell membranes after 60 mins.
In data set [3] the target is Sodium-dependent serotonin transporter (Homo sapiens, UniProt P31645). The data set can be described thus: Displacement of [3H]Imipramine from human 5-HT transporter expressed in HEK-293 cell membranes after 30 mins.
The subject of the next data set is Mus musculus. As to the kind of experiment: Antinarcotic activity in morphine-dependent C57BL/6 mouse assessed as inhibition of naloxone-induced jumping behavior in mouse at 5 mg/kg , ip after 30 mins relative to control. Format: functional. The conditions noted are these: C57BL/6, ip, 0.5 h.
Data set [4] concerns the target T1, Bifunctional epoxide hydrolase 2 (Homo sapiens, UniProt P34913).
T1 sequence (P34913 whole entry): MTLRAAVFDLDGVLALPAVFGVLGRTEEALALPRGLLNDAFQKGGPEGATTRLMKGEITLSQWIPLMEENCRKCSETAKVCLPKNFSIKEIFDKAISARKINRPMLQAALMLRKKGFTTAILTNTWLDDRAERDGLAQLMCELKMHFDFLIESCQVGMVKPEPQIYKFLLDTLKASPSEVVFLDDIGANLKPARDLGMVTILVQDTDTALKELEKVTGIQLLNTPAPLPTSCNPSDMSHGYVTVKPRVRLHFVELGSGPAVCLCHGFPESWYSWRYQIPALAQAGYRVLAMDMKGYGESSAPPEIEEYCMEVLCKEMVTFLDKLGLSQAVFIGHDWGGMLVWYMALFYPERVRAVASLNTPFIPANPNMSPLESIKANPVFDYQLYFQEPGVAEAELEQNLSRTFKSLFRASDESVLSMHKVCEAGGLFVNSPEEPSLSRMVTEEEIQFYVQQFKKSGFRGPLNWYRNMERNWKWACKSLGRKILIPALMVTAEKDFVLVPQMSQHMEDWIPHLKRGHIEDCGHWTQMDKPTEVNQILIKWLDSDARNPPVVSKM
The data set can be described thus: Competitive inhibition of soluble epoxide hydrolase (unknown origin).

Data set [5] addresses T2, Bifunctional epoxide hydrolase 2 (Homo sapiens) (UniProt P34913).
T2 sequence (whole entry): T1 sequence (P34913 whole entry)
As to the kind of experiment: Competitive inhibition of soluble epoxide hydrolase (unknown origin) at 100 uM relative to control.

Data set [6] deals with Platelet. As to the kind of experiment: Antiplatelet activity in rabbit platelet rich plasma assessed as inhibition of collagen-induced platelet aggregation at 300 uM preincubated for 3 mins followed by collagen addition measured after 10 mins relative to control. The data set is classed as functional. The settings on record: Oryctolagus cuniculus.
The subject of data set [7] is Platelet. As to the kind of experiment: Antiplatelet activity in rabbit platelet rich plasma assessed as inhibition of arachidonic acid-induced platelet aggregation at 300 uM preincubated for 3 mins followed by arachidonic acid addition measured after 10 mins relative to control. Format: functional. The settings on record: Oryctolagus cuniculus.
Data set [8] concerns Platelet. The data set can be described thus: Antiplatelet activity in rabbit platelet rich plasma assessed as inhibition of PAF-induced platelet aggregation at 300 uM preincubated for 3 mins followed by PAF addition measured after 10 mins relative to control. Format: functional. The settings on record: Oryctolagus cuniculus.
Data set [9] relates to Platelet. The data set can be described thus: Antiplatelet activity in rabbit platelet rich plasma assessed as inhibition of collagen-induced platelet aggregation at 150 uM preincubated for 3 mins followed by collagen addition measured after 10 mins relative to control. The data set is classed as functional. The settings on record: Oryctolagus cuniculus.
Data set [10] deals with Platelet. The data set can be described thus: Antiplatelet activity in rabbit platelet rich plasma assessed as inhibition of arachidonic acid-induced platelet aggregation at 150 uM preincubated for 3 mins followed by arachidonic acid addition measured after 10 mins relative to control. The data set is classed as functional. The settings on record: Oryctolagus cuniculus.

The subject of data set [11] is Platelet. As to the kind of experiment: Antiplatelet activity in rabbit platelet rich plasma assessed as inhibition of PAF-induced platelet aggregation at 150 uM preincubated for 3 mins followed by PAF addition measured after 10 mins relative to control. The settings on record: Oryctolagus cuniculus. Format: functional.
Another data set concerns EL4. As to the kind of experiment: Antitumor activity against mouse EL4 cells by MTT assay. For orientation: Tetrazolium assays rely on reduction of a dye to a coloured formazan, in cell work by metabolically active cells.
Another data set has as its system CPAE. The data set can be described thus: Cytotoxic activity against cow CPAE cells by MTT assay. The settings on record: Bos taurus.
The test system of data set [12] is Platelet. As to the kind of experiment: Antiplatelet activity in rabbit platelet rich plasma assessed as inhibition of ADP-induced platelet aggregation at 30 ug/ml relative to control. The settings on record: Oryctolagus cuniculus. The data set is classed as functional.
For data set [13], the system named is Platelet. As to the kind of experiment: Antiplatelet activity in rabbit platelet rich plasma assessed as inhibition of PAF-induced platelet aggregation at 50 ug/ml relative to control. The data set is classed as functional. The conditions noted are these: Oryctolagus cuniculus.
In data set [14] the target is Platelet-activating factor receptor (Homo sapiens) (UniProt P25105). The data set can be described thus: Inhibition of PAF receptor (unknown origin) assessed as reduction in receptor to rabbit platelet binding at 20 ug/ml relative to control.
In a further data set the test system is Candida albicans. The data set can be described thus: Antifungal activity against Candida albicans ATCC 10231 after 24 hrs by CLSI broth microdilution method. The data set is classed as functional, organism-based. The settings on record: ATCC 10231, 24 h.
The subject of another data set is Pichia kudriavzevii. As to the kind of experiment: Antifungal activity against Candida krusei ATCC 6258 after 24 hrs by CLSI broth microdilution method. The data set is classed as functional, organism-based. The conditions noted are these: ATCC 6258, 24 h. On the technique in general: Dilution methods test growth across graded concentrations, often in twofold steps.

A further data set has as its system Nakaseomyces glabratus. The data set can be described thus: Antifungal activity against Candida glabrata ATCC 90030 after 24 hrs by CLSI broth microdilution method. The data set is classed as functional, organism-based. The conditions noted are these: ATCC 90030, 24 h.
The next data set has as its system Candida parapsilosis. As to the kind of experiment: Antifungal activity against Candida parapsilosis ATCC 22019 after 24 hrs by CLSI broth microdilution method. Format: functional, organism-based. The settings on record: Lodderomyces parapsilosis, ATCC 22019, 24 h.
Another data set deals with Staphylococcus aureus. As to the kind of experiment: Antibacterial activity against Staphylococcus aureus ATCC 6538 after 24 hrs by CLSI broth microdilution method. The settings on record: ATCC 6538, 24 h. The data set is classed as functional, organism-based.
Data set [15] in a line: Cytotoxicity against BHK21 cells assessed as reduction in cell viability after 48 hrs by MTT assay. Format: cell-based, Mesocricetus auratus, BHK-21. The conditions noted are these: hamster.
In data set [16] the test system is Platelet. As to the kind of experiment: Antiplatelet activity in rabbit platelet rich plasma assessed as inhibition of thrombin-induced platelet aggregation at 300 uM preincubated for 3 mins followed by thrombin addition measured after 10 mins relative to control. The data set is classed as functional. The conditions noted are these: Oryctolagus cuniculus.
Data set [17] can be described thus: Selectivity index, ratio of CC50 for BHK21 cells to IC50 for Candida albicans ATCC 10231. The settings on record: hamster, read-out: Ratio CC50/IC50. Format: toxicity.
A short description of data set [18]: Selectivity index, ratio of CC50 for BHK21 cells to IC50 for Candida krusei ATCC 6258. The data set is classed as toxicity. The conditions noted are these: hamster, read-out: Ratio CC50/IC50.
Data set [19] can be described thus: Selectivity index, ratio of CC50 for BHK21 cells to IC50 for Candida glabrata ATCC 90030. Format: toxicity. The settings on record: hamster, read-out: Ratio CC50/IC50.
The nature of data set [20]: Selectivity index, ratio of CC50 for BHK21 cells to IC50 for Candida parapsilosis ATCC 22019. Format: toxicity. The settings on record: hamster, read-out: Ratio CC50/IC50.
The nature of data set [21]: Selectivity index, ratio of CC50 for BHK21 cells to IC50 for Staphylococcus aureus ATCC 6538. The data set is classed as toxicity. The settings on record: hamster, read-out: Ratio CC50/IC50.
Data set [22] in a line: Antioxidant activity assessed as DPPH radical scavenging activity at 50 ug/ml relative to control. The data set is classed as functional.
For data set [23], the system named is Plasmodium falciparum. The data set can be described thus: Antiplasmodial activity against blood form of chloroquine-resistant/mefloquine-sensitive Plasmodium falciparum W2 by [3H]-hypoxanthine incorporation method. Format: functional, organism-based.
The test system of data set [24] is Plasmodium falciparum. As to the kind of experiment: Antiplasmodial activity against blood form of chloroquine-resistant/mefloquine-sensitive Plasmodium falciparum W2 by histidine rich protein assay. The data set is classed as functional, organism-based.
Data set [25] can be described thus: Growth inhibition of HUVEC at 5 uM relative to control. Format: cell-based. The settings on record: human, HUVEC cells; read-out: GI.

Chain of Sodium-dependent serotonin transporter (P31645 whole entry): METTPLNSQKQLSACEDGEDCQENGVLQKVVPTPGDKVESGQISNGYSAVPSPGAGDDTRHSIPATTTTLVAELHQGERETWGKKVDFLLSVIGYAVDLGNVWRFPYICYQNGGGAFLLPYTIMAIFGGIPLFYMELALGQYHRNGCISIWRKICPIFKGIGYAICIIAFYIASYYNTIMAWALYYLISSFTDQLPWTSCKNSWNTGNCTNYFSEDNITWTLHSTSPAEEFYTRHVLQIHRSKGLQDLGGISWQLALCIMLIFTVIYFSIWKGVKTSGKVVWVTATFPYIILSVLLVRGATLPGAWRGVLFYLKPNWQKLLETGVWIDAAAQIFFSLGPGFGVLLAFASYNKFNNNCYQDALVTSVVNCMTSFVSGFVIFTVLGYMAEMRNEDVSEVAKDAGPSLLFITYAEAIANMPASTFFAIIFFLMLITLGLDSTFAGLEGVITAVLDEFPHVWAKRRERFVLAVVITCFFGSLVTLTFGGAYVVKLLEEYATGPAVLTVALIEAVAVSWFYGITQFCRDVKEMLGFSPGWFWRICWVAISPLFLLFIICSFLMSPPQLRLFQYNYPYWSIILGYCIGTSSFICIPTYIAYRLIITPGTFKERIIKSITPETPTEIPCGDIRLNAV
Chain of Platelet-activating factor receptor (Homo sapiens) (P25105 whole entry): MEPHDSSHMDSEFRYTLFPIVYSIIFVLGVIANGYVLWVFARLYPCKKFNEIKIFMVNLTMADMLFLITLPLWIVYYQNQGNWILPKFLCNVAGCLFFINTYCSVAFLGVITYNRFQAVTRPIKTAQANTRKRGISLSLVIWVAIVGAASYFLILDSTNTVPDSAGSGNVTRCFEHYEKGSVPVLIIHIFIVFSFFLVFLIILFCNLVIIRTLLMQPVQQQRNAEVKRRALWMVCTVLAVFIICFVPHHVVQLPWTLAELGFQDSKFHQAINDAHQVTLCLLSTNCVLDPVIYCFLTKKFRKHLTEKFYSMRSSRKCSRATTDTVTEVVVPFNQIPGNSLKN
Chain of 5-hydroxytryptamine receptor 6 (P50406 whole entry): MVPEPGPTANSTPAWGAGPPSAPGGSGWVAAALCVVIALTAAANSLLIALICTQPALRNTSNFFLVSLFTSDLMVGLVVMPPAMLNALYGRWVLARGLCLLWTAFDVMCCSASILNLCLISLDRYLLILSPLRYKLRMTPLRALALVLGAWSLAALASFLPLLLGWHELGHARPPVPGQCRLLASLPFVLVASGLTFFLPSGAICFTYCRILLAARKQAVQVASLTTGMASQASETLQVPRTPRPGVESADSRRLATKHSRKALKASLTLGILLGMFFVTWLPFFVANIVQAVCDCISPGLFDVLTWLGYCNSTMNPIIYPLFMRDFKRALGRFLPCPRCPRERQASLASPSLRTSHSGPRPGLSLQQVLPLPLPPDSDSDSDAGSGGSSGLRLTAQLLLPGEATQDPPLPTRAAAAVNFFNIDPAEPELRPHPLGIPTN
Chain of 5-hydroxytryptamine receptor 7 (P34969 whole entry): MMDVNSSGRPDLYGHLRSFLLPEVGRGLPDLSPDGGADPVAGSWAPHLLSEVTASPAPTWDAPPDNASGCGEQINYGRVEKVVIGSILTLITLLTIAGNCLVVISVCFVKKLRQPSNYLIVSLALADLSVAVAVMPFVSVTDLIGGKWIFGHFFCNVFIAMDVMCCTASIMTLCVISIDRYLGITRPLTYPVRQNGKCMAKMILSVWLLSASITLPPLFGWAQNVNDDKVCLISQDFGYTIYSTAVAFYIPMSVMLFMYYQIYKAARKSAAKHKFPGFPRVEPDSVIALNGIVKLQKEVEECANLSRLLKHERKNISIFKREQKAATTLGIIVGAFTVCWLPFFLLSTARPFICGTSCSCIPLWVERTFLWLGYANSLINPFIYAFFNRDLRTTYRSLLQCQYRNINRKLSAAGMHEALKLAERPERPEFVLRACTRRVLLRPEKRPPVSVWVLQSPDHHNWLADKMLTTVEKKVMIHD

A word on the IC50: it is the concentration needed to halve the response being measured. The low end stands for higher potency, the high end for lower potency. In general, inhibition in vivo refers to how much of the control response was suppressed. Turning to `CCCCCCCCCCNC(=O)/C=C/c1cc(OC)c(OC)c(OC)c1`, the IC50 turned out to be 5 µM in data set [1], 5.6 µM in [2] and 6.7 µM in [3]. In addition, the inhibition in vivo at 5 mg/kg in the data set with Mus musculus came to 80%.
Turning to `COc1ccc(C(=O)OC[C@H]2O[C@H](O[C@]3(CO)O[C@H](CO)[C@@H](O)[C@@H]3OC(=O)/C=C/c3cc(OC)c(OC)c(OC)c3)[C@H](O)[C@@H](O)[C@@H]2O)cc1`, the 50% inhibitory concentration (IC50) in [4] stood at 6.4 µM. This compound also registered an inhibition in data set [5] of more than 100%.
As to `COc1cc(/C=C/C(=O)N2CC(C)CC(C)C2)cc(OC)c1OC` (stereo not drawn), the inhibition at 300 µM in the data set with Platelet [6] stood at 98.6%; in the data set on Platelet [7], 100%; in the data set on Platelet [8] it was 94.8%. Besides, the results for the inhibition at 150 µM in the data set on Platelet [9], with Platelet [10] and in the data set with Platelet [11] were 97.2%, 100% and 56.9%, respectively.
On to `COc1cc(/C=C/C(=O)O[C@@H]2CC[C@]3(CO3)[C@@H]([C@@]3(C)O[C@@H]3CC=C(C)C)[C@@H]2OC)cc(OC)c1OC`, for which the 50% inhibitory concentration (IC50) with EL4 was 0.15 µg/mL (≈ 0.298 µM); in the data set on CPAE, 0.03 µg/mL (≈ 0.0597 µM).
On to `COc1cc(/C=C/C(=O)OC[C@H]2O[C@H](O[C@@]3(CO)O[C@H](CO)[C@@H](O)[C@@H]3OC(=O)/C=C/c3cc(OC)c(OC)c(OC)c3)[C@H](O)[C@@H](O)[C@@H]2O)cc(OC)c1O`, for which the half-inhibitory concentration (IC50) in data set [4] turned out to be 27.2 µM. This compound also yielded an inhibition in [5] of 97.4%.
With `COc1cc(/C=C/C(=O)NCCc2ccc(O)cc2)cc(OC)c1OC`, the inhibition at 30 µg/mL with Platelet [12] came out at 24.4%. Also, in the data set on Platelet [13], the inhibition at 50 µg/mL amounted to 28.8%. For the same compound, the inhibition in data set [14] is 12%.
As to `CCCCCCCCNC(=O)/C=C/c1cc(OC)c(OC)c(OC)c1`, the IC50 in [3] is more than 10 µM. Besides, the inhibition in vivo at 5 mg/kg in the data set on Mus musculus came out at 88%.
The term CC50 denotes the concentration giving 50% cytotoxicity. For the compound `COc1cc(/C=C/C(=O)N2CCC=CC2=O)cc(OC)c1OC` [PIPLARTINE], the IC50 was 94.6 µM in the data set on Candida albicans; 189 µM in the data set with Pichia kudriavzevii; 189 µM in the data set on Nakaseomyces glabratus; 94.6 µM in the data set with Candida parapsilosis; 315 µM in the data set on Staphylococcus aureus. Moreover, in [15], the CC50 at 48 h was 40.1 µM. The inhibition at 300 µM in the data set with Platelet [6] amounted to 100%; in the data set on Platelet [7], 100%; in the data set with Platelet [8], 100%; in the data set on Platelet [16], 23.5%. The selectivity ratio in data set [17] worked out at 0.42; in data set [18], 0.21; in data set [19] it was 0.21; in [20], 0.42; in data set [21] it was 0.12. The values for the inhibition at 150 µM in the data set with Platelet [9], in the data set with Platelet [10] and in the data set with Platelet [11] were 100%, 76.4% and 100%, respectively.
On to `COc1ccc(/C=C/COC(=O)/C=C/c2cc(OC)c(OC)c(OC)c2)cc1`, for which the inhibition in data set [22] was 18.6%.
Take `COc1cc(/C=C/C(=O)OCC(=O)c2ccc(Cl)cc2)cc(OC)c1OC`: the IC50 with Plasmodium falciparum [23] and in the data set on Plasmodium falciparum [24] was 128 µM in each case.
Turning to `COc1cc(/C=C/C(=O)Nc2ccc(NC(=O)[C@@H](O)[C@H](N)Cc3ccccc3)cc2)cc(OC)c1OC`, the inhibition at 5 µM in data set [25] came to 93%.
